# Laboratory results from publication PMC10348910, “Epigenetic reprogramming of cell cycle genes by ACK1 promotes breast cancer resistance to CDK4/6 inhibitor” (Oncogene, 2023).
# What was measured:
# [1] = test system: BT549; experiment: proliferation assay, trypan blue exclusion; format: cell-based; settings: BT549 (lacking Rb), 96 h
# Description: (§1) A–F Breast cancer cells were treated with either vehicle or (R)-9b for 48 h; cells were harvested and processed for cell cycle analysis using propidium iodide staining, followed by flow cytometry. G BT549 and H MDA-MB-468 cells were treated with varying drug concentrations of palbociclib or (R)-9b for 96 h and the cell viability assessed using trypan blue exclusion method. I BT549, and J MDA-MB-468 cells were treated with 1 µM palbociclib or (R)-9b for 48 h and subjected to cell cycle analysis using propidium iodide staining, followed by flow-cytometry. Palbociclib-resistant MDA-MB-231 (K) and HCC-1395 (L) were generated and treated with varying drug concentrations of palbociclib or (R)-9b for 96 h and the cell viability assessed using trypan blue exclusion method.
# (§2) For proliferation assay, 5 × 10^4 cells were plated in 6-well plate and treated with either vehicle (DMSO) or varying concentrations of (R)-9b or palbociclib in complete media for 96 h and number of viable cells were counted by trypan blue exclusion assay. Breast cancer cell lines were treated with vehicle or varying concentrations of (R)-9b for 72 h. The cells were harvested, washed 2 times with PBS and incubated with 3 ul of Annexin V-FITC antibody according to the manufacturers protocol (BD Biosciences). Five µl Propidium iodide was used to stain necrotic cells. The cells were acquired using the BD FACSCalibur machine (BD Biosciences) and data was analyzed using FlowJo software. Cell cycle analysis was performed as mentioned earlier. Briefly, vehicle or (R)-9b (48 h) treated cells were harvested by trypsinization, washed 2 times with PBS, and fixed using chilled 70% Ethanol for 1 h, followed by 2 washes with PBS. The cell pellets were treated with 50 µl RNase A (100 µg/ml; Sigma) for 15 min at 37 °C and Propidium Iodide (PI; 50 µg/ml, Sigma) was added to these cells, followed by acquisition using BD FACS Canto-II or FACSCalibur machines. The data were analyzed using FlowJo software.
# [2] = test system: MDA-MB-468; experiment: proliferation assay, trypan blue exclusion; format: cell-based; settings: MDA-MB-468 (lacking Rb), 96 h
# Description: as §1, §2
# [3] = test system: MDA-MB-468 xenografts; experiment: MDA-MB-468 xenograft in mammary fat pad; format: in vivo, female SCID mice
# Description: To validate these findings in breast tumors, MDA-MB-468 cells were injected in female SCID mice. Once palpable tumors were formed (5 weeks), mice were treated with vehicle (6% captisol), palbociclib (80 mg/Kg of body weight), (R)-9b (36 mg/Kg of body weight) by oral route, or (R)-9b (24 mg/Kg of body weight) by subcutaneous injection, five times a week.
# Fig. 7 ACK1 inhibitor overcomes palbociclib-resistant breast cancer growth and metastasis. A 3 × 10^6 MDA-MB-468 cells were injected in the 4th inguinal mammary fat pad of female SCID mice. Once the tumors were palpable, the mice were treated with either vehicle (Captisol; n = 7), Palbociclib at 80 mg/kg (n = 6), or (R)-9b at 36 mg/Kg (n = 6) orally. In addition, mice were injected with (R)-9b at 24 mg/Kg (n = 7) subcutaneously. Mice were treated five times a week, for 22 days. B, C The tumors were harvested and photographed, and the weights were recorded. D Vehicle or (R)-9b treated breast cancer cells were subjected to ChIP using pY88-H4 antibody, followed by qPCR for CXCR4 gene. E CXCR4 mRNA transcript levels in vehicle or (R)-9b treated MDA-MB-231 cells. 18S rRNA was used as housekeeping gene. F MDA-MB-231 cells were transfected with ACK1 or scrambled siRNA, followed by qRT-PCR to determine CXCR4 mRNA transcript levels. G Representative lung metastatic deposits of MDA-MB-231 cells injected via the tail veins in female SCID mice, treated with either vehicle or 24 mg/Kg (R)-9b orally. H Graphical quantitation of lung metastatic deposit. I and J 5 × 10^5 luciferase expressing 4T1 cells were injected into 4th inguinal mammary fat pad of female BALB/c mice. Once the tumors were palpable, mice were treated with either vehicle or (R)-9b at 24 mg/Kg (n = 3, each) subcutaneously for 2 weeks, five times a week. The metastases were assessed using IVIS. Data are represented as the mean ± SEM. *p < 0.05; **p < 0.01; ***p < 0.001. For (A, C–F, I), p values were calculated using unpaired two-tailed Student’s t test.
# All animal experiments were performed using the standards for humane care in accordance with the NIH Guide for the Care and Use of Laboratory Animals. Mice were obtained from Charles River Laboratories and experiments were performed according to IACUC protocols (IACUC # 20180259) approved in writing by Washington University in St. Louis Department of Comparative Medicine (DCM). 1.5 × 10^6 Cal-148 or MCF7, or 3 × 10^6 MDA-MB-468 cells were suspended in 200 µl of PBS with 50% matrigel (BD Biosciences) and were implanted subcutaneously into the mammary fat pad (between fourth and fifth inguinal) of female SCID C.B17 mice (n = 8 per group). Once the tumors were palpable (about 4–5 weeks), mice were randomly chosen for subcutaneous injection (Cal-148 and MCF7; 24 mg/Kg body weight) or given oral gavage with (R)-9b (MCF7; 36 mg/Kg body weight) resuspended in 6% Captisol (or 6% Captisol in PBS as vehicle), five times a week, for 4–5 weeks. Tumor volumes were measured twice a week using calipers. At the end of the study, all mice were humanely euthanized, tumors extracted and weighed.
# [4] = test system: advanced ER+/AR+ breast cancer; design: method as in NCT00755885; settings: ref NCT00755885, cited from earlier work
# [5] = test system: AR+ TNBC; design: method as in PMID 29373071, PMID 25944485; settings: cited from earlier work
# [6] = in vitro; settings: rat
# [7] = human, plasma
# [8] = in vitro; settings: human
smiles,measurement,setting,value
"CC(=O)c1c(C)c2cnc(Nc3ccc(N4CCNCC4)cn3)nc2n(C2CCCC2)c1=O [palbociclib, reference compound]",sensitivity (cell proliferation),[1],resistant
same,sensitivity (cell proliferation),[2],resistant
same,xenograft tumor growth,"[3]; palbociclib 80 mg/Kg oral, (R)-9b 36 mg/Kg oral or 24 mg/Kg subcutaneous, five times a week, 3 weeks",robust tumor growth
same,weights of the mice,"[3]; palbociclib 80 mg/Kg, (R)-9b 36 mg/Kg oral or 24 mg/Kg subcutaneous",modest decrease in weights
same,"histology (H&E) of heart, spleen, kidneys and livers","[3]; palbociclib 80 mg/Kg, (R)-9b oral and subcutaneous",did not reveal histological abnormalities
C[C@]12CC[C@H](O)CC1=CC[C@@H]1[C@@H]2CC[C@]2(C)C(c3cccnc3)=CC[C@@H]12 [abiraterone],clinical benefit rate,[4]; in 24 weeks,20%
same,median progression-free survival duration,[4],2.8 months
CNC(=O)c1ccc(N2C(=S)N(c3ccc(C#N)c(C(F)(F)F)c3)C(=O)C2(C)C)cc1F [enzalutamide],clinical benefit rate,[5]; at 16 weeks,33%
same,median progression-free survival duration,[5],3.3 months
CC(=O)CC(c1ccccc1)c1c(O)c2ccccc2oc1=O (stereo not shown) [warfarin],recovery,[6]; % Recovery,86.7%
same,fraction unbound at 6 h,"[6]; plasma, % Bound",0.0069
same,remaining at 6 h,"[6]; plasma, % Remaining at 6 hr",88.2%
same,fraction unbound at 6 h,"[6]; plasma, % Unbound",0.0069
same,% Bound,[7],98.53%
same,% Unbound,[7],1.47%
same,recovery,[8]; % Recovery,92.3%
same,fraction unbound,"[8]; plasma, % Bound",0.0147
same,remaining at 6 h,"[8]; plasma, % Remaining at 6 hr",97.8%
same,fraction unbound,"[8]; plasma, % Unbound",0.0147
